Measured values taken from patent US20080069815A1, “ANTI-OSTEOPONTIN ANTIBODY AND USE THEREOF” (IMMUNO-BIOLOGICAL LABORATORIES CO., LTD., priority 2001, published 2008).

Legend:
[1] = test system: murine NIH3T3 cell adhesion to mOPN/de-GST; test: Inhibition of NIH3T3 cell adhesion to murine OPN (mOPN/de-GST); type: cell-based, mouse; conditions: peptide 100 μg/ml; FIG. 7
Text: It was examined by the method described in the reference (S. Kon et al., (2002): J. Cell. Biochem., 84(2), 420-432) as to whether or not the M5 antibody might inhibit cell adhesion to OPN. As the OPN, the full-length murine OPN was used, from which the GST moiety had preliminarily been removed with PreScission protease (Amersham Pharmacia Biotech, Tokyo, Japan) (referred to as “mOPN/de-GST” hereinafter) was used. As the cell, murine NIH3T3 cell was used.

[2] = test system: human fibroblast TIG-7 adhesion to OPN; test: Inhibition of TIG-7 cell adhesion to OPN (CHO/OPN-a coated plate); type: cell-based; conditions: peptide 100 μg/ml; FIG. 1A
Experimental: It was examined by the following method as to whether or not the monoclonal antibodies inhibited cell adhesion to OPN. First, a 96-well plate was precoated with various concentrations of the CHO/OPN-a at 4° C. overnight, which was then treated with 0.5% BSA in PBS under conditions of 37° C. for 10 minutes, so as to block non-specific adhesion. A human fibroblast TIG-7 or SW480 cell transformed with the cDNA of an integrin subunit α9 (referred to as “α9-transformed SW480 cell” hereinafter) was suspended in D-MEM containing 0.25% BSA; 200 μl of the resulting cell suspension (at a cell concentration of 5×10^4 cells/well) was injected in a 96-well plate precoated with the CHO/OPN-a or nOPN, in the presence or absence of various concentrations of the monoclonal antibodies or synthetic peptides, for incubation at 37° C. for one hour.
The culture medium was discarded from the plate, and all the wells were rinsed twice with D-MEM containing 0.25% BSA. The adherent cells were fixed and stained with 0.5% crystal violet in 20% methanol for 30 minutes.
All the wells were rinsed three times with water, and the adherent cells were then solubilized into 20% acetic acid. The resulting supernatant recovered from each well was analyzed with an immunoreader, to measure the absorbance at 590 nm to determine the relative count of the cells adhering to the well. […]

[3] = test system: α9-transformed SW480 cell adhesion to vitronectin; test: Adhesion of α9-transformed SW480 cell to vitronectin; type: cell-based, human; conditions: 1 μg/ml vitronectin; 200 μM peptide; FIG. 2A
[4] = test system: mouse collagen arthritis model; test: Mouse collagen arthritis model (arthritogenic antibody cocktail/LPS); type: in vivo; conditions: for Arthritis score: 3.2 mg/kg orally once daily; for Volume of leg edema / Body weight change / Quantity of feed intake: 3.2 mg/kg
Experimental: For arthritis induction, an arthritogenic antibody cocktail (under the trade name of a cocktail for arthritis, Arthrogen-CIA® mAb, Arthritogenic mAb cocktail; manufactured by Iwai Chemical Pharmaceutical Co., Ltd.) recognizing four epitopes specific to collagen was used. To a mouse was intravenously administered the arthritogenic cocktail; 3 days later, LPS (100 μg) was intraperitoneally administered to thereby elicit arthritis. Arthritis was observed on day 3 after LPS dosing, which reached maximum on day 6.
Immediately before LPS dosing and 3 days later, the M5 antibody was intravenously administered at a dose of 40 μg, 150 μg or 400 μg. As the control group, a rabbit IgG-dosed group (at a dose of 400 μg) was arranged. Additionally, the anti-mouse TNF-α antibody was intravenously administered at a dose of 200 μg/mouse immediately before LPS administration and 3 days later. As the control group, a rat IgG-dosed group (at a dose of 200 μg) was arranged. Further, MTX was orally given (at a dose of 3.2 mg/kg) once daily on the very day of LPS dosing and thereafter. Then, MTX dissolved in 5 ml of 0.5% methyl cellulose solution was used. For the control group, 5 ml of 0.5% methyl cellulose solution was arranged.
Assessment was done per one group of five animals, concerning four items, namely arthritis score, leg edema, body weight change and feed intake.

GRGDSP
Inhibition of NIH3T3 adhesion to mOPN/de-GST by peptide [1]: apparently inhibited | Inhibition of TIG-7 adhesion to OPN by peptide [2]: apparently inhibited | Inhibition of adhesion between vitronectin and α9-transformed SW480 cell by peptide [3]: inhibited

CN(Cc1cnc2nc(N)nc(N)c2n1)c1ccc(C(=O)N[C@@H](CCC(=O)O)C(=O)O)cc1 [MTX]
Overall effect in mouse arthritis model (arthritis score, onset of arthritis, leg edema) [4]: almost no pharmaceutical efficacy | Arthritis score ([4]; day 3): 0.8 ± 0.4 | Arthritis score ([4]; day 4): 1.8 ± 0.7 | Arthritis score ([4]; day 5): 6.0 ± 0.6 | Arthritis score ([4]; day 6): 6.0 ± 0.6 | Volume of leg edema ([4]; Foreleg): 0.047 ± 0.003 mL | Volume of leg edema ([4]; Hind leg): 0.132 ± 0.003 mL | Body weight change ([4]; day 0 to day 3 post-dosing): -1.5 g | Quantity of feed intake ([4]; day 0 to day 3 post-dosing): 0.8 g/mouse/day | Body weight change ([4]; day 3 to day 6 post-dosing): -1.8 g | Quantity of feed intake ([4]; day 3 to day 6 post-dosing): 2.1 g/mouse/day
